# Experimental data from patent US20240299321A1, “METHODS TO SENSITIZE CANCER CELLS AND STANDARDIZED SCREENING ASSAY FOR IMMUNOTHERAPY” (THE TRUSTEES OF INDIANA UNIVERSITY, priority 2020, published 2024).
# How the values were obtained:
# [1] = system: EO771 tumors; test: EO771 orthotopic breast tumor model in immunocompetent C57BL/6 mice; format: in vivo; settings: for expression of GZMB, IFNγ and TNFα in the tumor-infiltrated CD8+ T cells / tumor infiltration of T cells (total CD3+, CD4+ and CD8+): 20 mg kg-1; for expression of GZMB, IFNγ and TNFα in the tumor-infiltrated CD8+ T cells: FIG. 3E; for tumor infiltration of T cells (total CD3+, CD4+ and CD8+): flow cytometry; for tumor growth and weight: 20 mg kg-1 i.p., 3 times/week for 2 weeks; for tumor growth and weight / tumor cell proliferation (Ki67+): vs control group; for numbers of apoptotic tumor cells (cleaved Caspase 3+) / tumor cell proliferation (Ki67+): IHC of tumor tissue; for anti-tumor activity after depletion of CD4+ T cells: anti-CD4 10 mg kg-1 + drug 20 mg kg-1; for anti-tumor activity after depletion of CD8+ T cells: anti-CD8 10 mg kg-1 + drug 20 mg kg-1; for IFNγ and TNFα secretion by CD8+ T cells of drug-treated tumors: upon stimulation (PMA and ionomycin)
# Procedure: (§1) T cell effector function analysis: We measured cytokine and cytolytic granule production (IFNγ, GZMB and TNFα) of CD8+ T cells from mouse tumor samples and tumor organoid-T cell co-culture. Briefly, CD8+ T cells were placed into the 24-well plate at 1×10^6 cells/well, stimulated with 1 μM ionomycin and 50 ng ml-1 phorbol 12-myristate 13-acetate (PMA) (Sigma-Aldrich) for 4 h, in the presence of 5 μg ml-1 Brefeldin A (BFA), with the purpose to amplify the expression of intracellular cytokines61. The cells were stained with APC/Cy7-conjugated anti-CD8a (Biolegend) for 15 min and then fixed by 4% PFA. After washing, cells were stained with PerCP/Cy7-conjugated anti-GZMB, APC-conjugated anti-IFNγ and PE-conjugated anti-TNFα (Biolegend) for 15 min. In flow cytometric analyses, T cells stained with isotype control antibodies were used as negative controls for gating the cytokine or granule-producing cells. For T cells from tumor organoid-T cell co-culture, tumor organoids were first digested into single cells with TrypLE Express at 37° C. before APC/Cy7-conjugated anti-CD8a staining. In the IFNγ and TNFα secretion assay (Biolegend), T cells were stimulated with ionomycin and PMA without the presence of BFA. The media were collected for ELISA assay.
# Immunohistochemistry (IHC) and Immunofluorescence (IF) analysis of tumor organoids: Tumor organoids were gently centrifuged at 100 rcf from organoid culture medium and then embedded in 2% agar. Tumor organoids were fixed in 4% paraformaldehyde solution for overnight at room temperature. The samples were replaced with 70% ethanol and later embedded in paraffin blocks. Paraffin sections were cut at 5 μm thickness, attached on slides, heated at 60° C. for 1 h and then overnight at 37° C. The slides were stained with hematoxylin and eosin (H&E). IHC staining follows the protocol described62. Mouse-specific antibodies for CD8α (Cell Signaling Technology, clone D4W2Z, 1:400 dilution), cleaved caspase3 (Cell Signaling Technology, clone D175, 1:400 dilution) and Ki67 (Cell Signaling Technology, clone D3B5, 1:400 dilution) were used for IHC staining. The DAB peroxidase substrate kit (Vector laboratories Inc.) was used to visualize the antibodies. For IF analysis, the sample slides were blocked 3% BSA for 40 min after hydration. The slides were stained with primary antibodies including EpCAM (Abcam, 1:400 dilution), FITC-conjugated anti-α-SMA (Genetex, 1:400 dilution) and AF594-conjugated anti-CD31 (Biolegend) for 1 h. For EpCAM staining, the slide was further stained with secondary antibody Alexa Fluor 647-conjugated anti-rabbit IgG (Biolegend, 1:200) for 40 min. The fluorescence images were captured under a Leica DM4B microscope.
# Animal studies: All animal experiments were performed in accordance with the National Institutes of Health's Animal Use Guidelines and protocols approved by the Animal Care and Use Committee of Indiana University School of Medicine. To examine the tumorigenic potential of tumor organoids, tumor organoids with different sizes (diameter of 30-70, 70-150, and 150-500 μm) were orthotopically injected into fat pad of the 4th mammary gland in female C57BL/6 mice. Each mouse was injected with a total of 2×10^5 tumor cells. 5 mice were used in each group. Tumors were measured in two dimensions using a manual caliper. Tumor volume was calculated using the following formula: V=0.5×length×width×width. Tumor volume was measured every 3 days. Tumors were harvested 22 days after injection. The tumor growth, volume and weight were analyzed. To evaluate the anti-tumor effect of drugs in immunocompetent C57BL/6 mice and immunodeficient nude (NU/J) mice, 2×10^5 EO771 cells were orthotopically injected into fat pad of the 4th mammary gland in female mice. […]
# [2] = system: OVA-specific CD8+ T cells; test: T cell effector function in EO771 organoid co-culture; format: cell-based, mouse; settings: for IFNγ, GZMB and TNFα expression levels in the co-cultured CD8+ T cells: co-cultured with drug-treated tumor organoids; for secreted IFNγ and TNFα (ELISA): vs T cells co-cultured with untreated organoids
# Procedure: as §1
SMILES,"expression of GZMB, IFNγ and TNFα in the tumor-infiltrated CD8+ T cells [1]","tumor infiltration of T cells (total CD3+, CD4+ and CD8+) [1]",tumor growth and weight [1],numbers of apoptotic tumor cells (cleaved Caspase 3+) [1],tumor cell proliferation (Ki67+) [1],anti-tumor activity after depletion of CD4+ T cells [1],anti-tumor activity after depletion of CD8+ T cells [1],anti-tumor activity relative to the other candidates ([1]; in vitro and in vivo assays),IFNγ and TNFα secretion by CD8+ T cells of drug-treated tumors [1],"IFNγ, GZMB and TNFα expression levels in the co-cultured CD8+ T cells [2]",secreted IFNγ and TNFα (ELISA) [2],cytotoxicity of the CD8+ T cells in the tumors ([1]; immune analyses of treated tumors)
Nc1ccccc1NC(=O)CCCCCCC(=O)Nc1ccccc1 [BML-210],up-regulated,higher tumor infiltration,significantly suppressed,increased,markedly lower,did not have much effect,abolished the anti-tumor activity,most potent anti-tumor activity,secreted more IFNγ and TNFα,remarkably up-regulated,much higher levels,–
C#Cc1cccc(Nc2ncnc3cc(OC)c(OCCCCCCC(=O)NO)cc23)c1 [CUDC-101],up-regulated,higher tumor infiltration,significantly suppressed,increased,markedly lower,did not have much effect,abolished the anti-tumor activity,–,secreted more IFNγ and TNFα,remarkably up-regulated,much higher levels,–
c1ccc([C@@H]2C[C@H]2NC2CCNCC2)cc1 [GSK-LSD1],–,higher tumor infiltration of T cells,markedly suppressed,increased,much lower,–,–,–,–,remarkably up-regulated,much higher levels,enhanced cytotoxicity of the CD8+ T cells
